# Assay results taken from patent US11692008B2, “Preparation and uses of reactive oxygen species scavenger derivatives” (XWPHARMA LTD., priority 2017, dated 2023).
# Like-named read-outs stand apart in the source and are kept apart here.
# What was measured:
# HT-1080 cells = experiment: Ferroptosis cell viability assay (Erastin-induced, CellTiter-Glo); assay type: cell-based; conditions: read-out: EC50, inhibition for ferroptosis in HT-1080 cell
# Protocol: Cell Lines and Media: HT-1080 (fibrosarcoma) cells were obtained from American Type Culture Collection. Cells were grown in EMEM media, 10% Heat-Inactivated FBS, and penicillin-streptomycin mix (Invitrogen). Cells were maintained at 37° C. and 5% CO2 in a tissue culture incubator.
# Cell Viability Assay. Seed 10,000 cell/well of HT-1080 cells with 195 μL growth media in black and clear bottom 96-well plates (Cat #Corning3904) and allow cells to adhere overnight. The next day, dilute test compound by 2-fold dilution into 12 points with medium containing 400 μM Erastin. Transfer 5 μL of compounds solution into growth medium in triplicated wells. 30 hours later, add Cell Titer-Glo® Luminescent cell viability assay reagent (Cat #, Promega G8081) to measure HT-1080 cell viability according to the manufacture protocol. Briefly, aspirate 100 μL medium, and add 50 μL CellTiter-Glo® Luminescent reagent to each well and incubated for 30 minutes at room temperature to stabilize the Luminescent signal. Seal the plates and centrifuged for 1 minute at 1,000 rpm to remove bubbles. Shake the plates for 1 minute on an orbital shaker. Read the plate to detect Luminescent signal with EnSpire Multimode Plate Reader (PerkinElmer). The remaining activity % is used to evaluate Erastin induced ferroptosis in HT-1080 cells and expressed as the following formula: % Remaining Activity=100×[(Sample−Backgroundavg)/(Vehicle−Backgroundavg)]
# Sample: Readout from the test compound
# Vehicle: Readout from the vehicle sample
# Background: Readout from the Erastin only treatment
# Dose response curve is graphed by using the non-linear regression analysis (formula equation 201) in XLFit (Excel add-in software) for the average % remaining activity from triplicates, and the EC50 values is then calculated. In this anti-ferroptosis assay, ferrostatin-1, and XJB-5-131 are included as reference. The acceptance criteria were set based on historical result, mean±2.58*SD in logarithmic scale, meanwhile Z′>0.5.
# 3T3-L1 cells = experiment: Apoptosis assay (Caspase-Glo 3/7, Actinomycin D induced); assay type: cell-based; conditions: 100 nM Actinomycin D, read-out: EC50, inhibition for apoptosis in 3T3-L1 cell induced by Actinomycin D
# Protocol: Cell Lines and Media. 3T3-L1 cells were obtained from American Type Culture Collection. Cells were grown in DMEM completed media, 10% FBS, and penicillin-streptomycin mix (Invitrogen). Cells were maintained at 37° C. and 5% CO2 in a tissue culture incubator.
# Apoptosis Assay. […] We used this assay to screen our compounds for apoptosis inhibition. Briefly, 40 μL of 3000 3T3-L1 cells were seeded per well in 384 well plates, Cells were allowed to adhere overnight. In the next day, prepare the Actinomycin D as the apoptosis inducing agent into 100 μM DMSO stock. Prepare the test compounds into 10 mM DMSO stock. Serial dilute the compound into 10 points by 3-fold dilution with DMSO. Pre-treat the 3T3-L1 cells with test compound by transfer 40 nL of stock of serial concentration in triplicate wells using acoustic fluid transfer, incubate for 2 hours. Then transfer 40 nL of 100 μM of Actinomycin D (final concentration is 100 nM) into designated wells using acoustic fluid transfer. Incubate the assay plates at 37° C., 5% CO2, 95% humidity incubator for 48 hours. For caspase assay, add 20 μL/well of Caspase-Glo® 3/7 reagent (Promega) into test wells. Incubate for 30 minutes at room temperature to stabilize the luminescence signal. Read the plate with EnSpire Multimode Plate Reader (PerkinElmer). Calculate the EC50 value using formula equation 201: y=(A+((B−A)/(1+((x/C)^D)))) from the XLFit (Excel add-in software), where • A: Average mean of vehicle samples • B: Average mean of cells treated with 100 nM AcD • C: EC50 • D: HillSlope Z′ factor was used to describe the screening assay performance. The Z′ factor value was >0.5 in all the test plates which indicated the assay was qualified and the IC50 value was reliable for all tested compounds.
Structure (SMILES),EC50 (HT-1080 cells; 30 hours),"EC50 (HT-1080 cells; Homo sapiens, HT-1080, 30 h)",further results
"CC1=C(C)C(=O)C(CCC(=O)NCCCC[C@H](NC(=O)[C@@H]2CCCN2C(=O)[C@H](/C=C/[C@H](CC(C)C)NC(=O)OC(C)(C)C)Cc2ccccc2)C(=O)NC(C)C)=CC1=O [I, tert-Butyl ((4S,7S,E)-7-benzyl-8-((S)-2-(((S)-6-(3-(4,5-dimethyl-3,6-dioxocyclohexa-1,4-dien-1-yl)propanamido)-1-(isopropylamino)-1-oxohexan-2-yl)carbamoyl)pyrrolidin-1-yl)-2-methyl-8-oxooct-5-en-4-yl)carbamate]",0.119 µM,–,"EC50 (3T3-L1 cells; Mus musculus, 3T3-L1, 48 h): 1.15 µM"
"COC1=C(OC)C(=O)C(CCCCCCCCCCOC(=O)NCCCC[C@H](NC(=O)[C@@H]2CCCN2C(=O)[C@H](/C=C/[C@H](CC(C)C)NC(=O)OC(C)(C)C)Cc2ccccc2)C(=O)NC(C)C)=C(C)C1=O [III, tert-butyl N-[(4S,5E,7S)-7-benzyl-8-[(2S)-2-{[(1S)-5-[({[10-(4,5-dimethoxy-2-methyl-3,6-dioxocyclohexa-1,4-dien-1-yl)decyl]oxy}carbonyl)amino]-1-[(propan-2-yl)carbamoyl]pentyl]carbamoyl}pyrrolidin-1-yl]-2-methyl-8-oxooct-5-en-4-yl]carbamate]",–,0.0346 µM,–
CC1=C(C)C(=O)C(CCCOC(=O)NCCCC[C@H](NC(=O)[C@@H]2CCCN2C(=O)[C@H](/C=C/[C@H](CC(C)C)NC(=O)OC(C)(C)C)Cc2ccccc2)C(=O)NC(C)C)=CC1=O [II],0.033 µM,–,–
"CC1=C(C)C(=O)C(CCC(=O)NCCCC[C@H](NC(=O)[C@@H]2CCCN2C(=O)[C@H](/C=C/[C@H](CC(C)C)NC(=O)OC(C)(C)C)Cc2ccccc2)C(=O)NC(C)C)=CC1=O [IV, tert-Butyl ((4S,7S,E)-7-benzyl-8-((S)-2-(((S)-6-(3-(4,5-dimethyl-3,6-dioxocyclohexa-1,4-dien-1-yl)propanamido)-1-(isopropylamino)-1-oxohexan-2-yl)carbamoyl)pyrrolidin-1-yl)-2-methyl-8-oxooct-5-en-4-yl) carbamate]",0.0244 µM,–,EC50 (3T3-L1 cells; 48 hours): 0.702 µM
"CC1=C(C)C(=O)C(CCCOC(=O)NCCCC[C@H](NC(=O)[C@@H]2CCCN2C(=O)[C@H](/C=C/[C@H](CC(C)C)NC(=O)OCC2CC2)Cc2ccccc2)C(=O)NC(C)C)=C(C)C1=O [IX, Cyclopropylmethyl N-[(4S,5E,7S)-7-benzyl-2-methyl-8-oxo-8-[(2S)-2-{[(1S)-1-[(propan-2-yl)carbamoyl]-5-({[3-(2,4,5-trimethyl-3,6-dioxocyclohexa-1,4-dien-1-yl)propoxy]carbonyl}amino)pentyl]carbamoyl}pyrrolidin-1-yl]oct-5-en-4-yl]carbamate]",–,0.0493 µM,–
"CC1=C(C)C(=O)C(CCCOC(=O)NCCCC[C@H](NC(=O)[C@@H]2CCCN2C(=O)[C@H](/C=C/[C@H](CC(C)C)NC(=O)OC(C)(C)C)Cc2ccccc2)C(=O)NC(C)C)=CC1=O [V, tert-butyl N-[(4S,5E,7S)-7-benzyl-8-[(2S)-2-{[(1S)-5-({[3-(4,5-dimethyl-3,6-dioxocyclohexa-1,4-dien-1-yl)propoxy]carbonyl}amino)-1-[(propan-2-yl)carbamoyl]pentyl]carbamoyl}pyrrolidin-1-yl]-2-methyl-8-oxooct-5-en-4-yl]carbamate]",–,0.196 µM,"EC50 (3T3-L1 cells; Mus musculus, 3T3-L1, 48 h): 2.75 µM"
"CCOC(=O)N[C@H](/C=C/[C@H](Cc1ccccc1)C(=O)N1CCC[C@H]1C(=O)N[C@@H](CCCCC1=C(C)C(=O)C(C)=C(C)C1=O)C(=O)NC(C)C)CC(C)C [VII, ethyl ((4S,7S,E)-7-benzyl-8-((S)-2-(((S)-1-(isopropylamino)-1-oxo-6-(2,4,5-trimethyl-3,6-dioxocyclohexa-1,4-dien-1-yl)hexan-2-yl)carbamoyl)pyrrolidin1-yl)-2-methyl-8-oxooct-5-en-4-yl)carbamate]",–,0.0805 µM,–
"CC1=C(C)C(=O)C(CCCOC(=O)NCCC[C@H](NC(=O)[C@@H]2CCCN2C(=O)[C@H](/C=C/[C@H](CC(C)C)NC(=O)OC(C)(C)C)Cc2ccccc2)C(=O)NC2CC2)=C(C)C1=O [XII, 3-(2,4,5-trimethyl-3,6-dioxocyclohexa-1,4-dien-1-yl)propyl N-[(4S)-4-{[(2S)-1-[(2S,3E,5S)-2-benzyl-5-{[(tert-butoxy)carbonyl]amino}-7-methyloct-3-enoyl]pyrrolidin-2-yl]formamido}-4-(cyclopropylcarbamoyl)butyl] carbamate]",–,0.149 µM,–

# Further lines, with some results ahead:
EC50 (HT-1080 cells; 30 hours),"EC50 (HT-1080 cells; Homo sapiens, HT-1080, 30 h)",Structure (SMILES),further results
–,> 6 µM,"COc1c(C)c(C)c(OC)c(CCCOC(=O)NCCC[C@H](NC(=O)[C@@H](NC(=O)[C@@H]2CCCN2C(=O)[C@H](/C=C/[C@H](CC(C)C)NC(=O)OC(C)(C)C)Cc2ccccc2)C(C)C)C(=O)NC(C)C)c1C [VIII, tert-butyl N-[(4S,5E,7S)-7-benzyl-8-[(2S)-2-{[(1S)-1-{[(1S)-4-({[3-(2,5-dimethoxy-3,4,6-trimethylphenyl)propoxy]carbonyl}amino)-1-[(propan-2-yl)carbamoyl]butyl]carbamoyl}-2-methylpropyl]carbamoyl}pyrrolidin-1-yl]-2-methyl-8-oxooct-5-en-4-yl]carbamate]",–
0.0391 µM,–,CC1=C(C)C(=O)C(CCCC[C@H](NC(=O)[C@@H]2CCCN2C(=O)[C@H](/C=C/[C@H](CC(C)C)NC(=O)OC(C)(C)C)Cc2ccccc2)C(=O)NC(C)C)=C(C)C1=O [VI],EC50 (3T3-L1 cells; 48 hours): 7.32 µM
–,0.0569 µM,"CC1=C(C)C(=O)C(CCCOc2ccc(C[C@H](NC(=O)[C@@H]3CCCN3C(=O)[C@H](/C=C/[C@H](CC(C)C)NC(=O)OC(C)(C)C)Cc3ccccc3)C(=O)NC(C)C)cc2)=C(C)C1=O [X, tert-Butyl ((4S,7S,E)-7-benzyl-8-((S)-2-(((S)-1-(isopropylamino)-1-oxo-3-(4-(3-(2,4,5-trimethyl-3,6-dioxocyclohexa-1,4-dien-1-yl)propoxy)phenyl)propan-2-yl)carbamoyl)pyrrolidin-1-yl)-2-methyl-8-oxooct-5-en-4-yl)carbamate]",–
–,0.047 µM,"CC1=C(C)C(=O)C(CCCOC(=O)NCCC[C@H](NC(=O)[C@@H](NC(=O)[C@@H]2CCCN2C(=O)[C@H](/C=C/[C@H](CC(C)C)NC(=O)OC(C)(C)C)Cc2ccccc2)C(C)C)C(=O)NC(C)C)=C(C)C1=O [XI, tert-butyl N-[(4S,5E,7S)-7-benzyl-2-methyl-8-[(2S)-2-{[(1S)-2-methyl-1-{[[(1S)-1-[(propan-2-yl)carbamoyl]-4-({3-(2,4,5-trimethyl-3,6-dioxocyclohexa-1,4-dien-1-yl)propoxy]carbonyl}amino)butyl]carbamoyl}propyl]carbamoyl}pyrrolidin-1-yl]-8-oxooct-5-en-4-yl]carbamate]",–
